Test results: patent US5349070A, “Salicylic acid-maltol conjugates” (priority 1993, dated 1994)

What was measured:
[1] = tested on: Malondialdehyde (MDA) Generation in Mouse Liver Homogenate; test: Inhibition of malondialdehyde (MDA) generation (antioxidant activity), in vitro; assay type: biochemical, mouse (male ICR)
Procedure: Animal: male ICR mouse weighing 20-25 g
1. Maltol (10% DMF saline)
2. Aspirin (10% DMF saline).
TBA reagents: Thiobarbituric acid (0.3%) and SDS (0.4%) were dissolved in 7.5% acetate buffer (pH 4.0)
Antioxidant activities were determined following the method of Okawa et al. (Biochemistry (Japan) 1977), 49(8), 829). Mouse livers were homogenized with ten volumes of saline. To 10 ml of homogenate was added 10 ml of the sample solution, and the mixture was incubated at 37° C. for 3 hrs. Then 3.6 ml of TBA reagents were added to the mixture and the resulting mixture was heated at 98° C. for 1 hr. After the temperature was reduced to 24° C., the reaction mixture was extracted with 2 ml of butanol and the butanol phase was separated by centrifugation. The absorbance at 532 nm of the butanol phase was measured.

[2] = Gastric ulceration experiment; assay type: in vivo, rat (male Sprague Dawley); conditions: for Ulcer Index: mean ± S.E.; for gastric ulceration: compound A versus aspirin at four times lower dose
Procedure: Animal: Male Sprague Dawley rats weighing 160-210 g (6 rats as a group).
Reference: Aspirin (200 mg/kg in 1% CMC).
(§1) Medication: Oral administration.
Rats were deprived of food but allowed free access to water for 24 hrs (water was removed 2 hrs before experiments). Samples suspended in 1% CMC solution […]. The stomachs were then inflated by injecting 10 ml of 2% formalin through the esophageal orifice and immersed in 2% formalin for 10 min. Subsequently, the stomachs were incised along the greater curvature and the length of each leison in the glandular portion was measured. The sum of the lengths (mm) of all lesions for each rat was used as the ulcer index.

Bleeding time = assay type: in vivo; conditions: for Bleeding Time: in s (unit assumed); for percent increment of bleeding time: P < 0.05
Procedure: To the experimental groups, equivalent doses of compound A and aspirin were administered separately for 10 days.

[3] = background statement; cited from earlier work
Typhoid vaccine pyrogen = test: Antipyretic activity (typhoid vaccine pyrogen, rectal temperature); assay type: in vivo, mouse (male ICR); conditions: oral, mouse, FIG. 3; compound A 160, 500 mg/kg, aspirin 100 mg/kg
Procedure: Animal: Male ICR mouse weighing 17-21 g (5 mice as a group).
Sample: Compound A (160 mg/kg, 500 mg/kg in 1% CMC).
Reference: Aspirin (100 mg/kg in 1% CMC).
Pyrogen: Typhoid vaccine (0.1 ml/mouse, i.p.).
Antipyretic activities were measured according to Winter et al. with some modifications (Winter, C. A. et al. (1963), J. Pharmacol Exptl. Therap., 141, […]). Rectal temperature was measured using digitalized thermometer inserted 3 cm deep at one hr intervals. Typhoid vaccine was injected to mouse i.p. at zero time. After 2 hrs, aspirin and sample (compound in Example 1) were orally given to mouse.

[4] = tested on: Carrageenin-induced edema; test: Antiinflammatory activity by Carrageenin-induced edema test; assay type: in vivo, rat (male Sprague Dawley); conditions: for % Increment of Edema: mean ± S.E.
Procedure: Animal: Male Sprague Dawley rats weighing approx. 170 g (5 rats as a group). […]
as §1
The inhibitions of Carrageenin-induced edema by compound A and aspirin was measured according to Winster et al. (Winter, C. A., Risley, E. A. and Nuss, G. W. (1963), J: Pharmaco. Exptl. Therap., 141, 369). Samples were administered orally at 6 hrs and 30 min before Carrageenin injection. Edema was induced with subcutaneous injection of 0.05 ml of 1% Carrageenin in saline solution in a hind paw of rat. Then, the volume of edema was measured at time intervals.

BSA = test: Protein stabilizing activity (heat denaturation of BSA); assay type: biochemical; conditions: 1×10^-3 M in 5% DMF; data not shown
Procedure: Sample: Compound A (1×10^-3 M in 5% DMF solution
The protein stabilizng activity of the sample was analyzed as described by Mizushima (Mizushima, Y. (1965), Lancet, 1, 169). Briefly, 2 ml of 0.75% BSA in 0.1M phosphate-buffered saline (pH 5.3) was mixed with 1 ml of appropriately diluted test sample solution. After standing at room temperature for 15 min, the reaction mixture was incubated at 66.5°C. and 0° C. for 3 min and 15 min, respectively. The degree of heat denaturation of BSA was estimated by the turbidity of colloidal precipitate, whose absorbance at 570 nm was measured.

platelets = test: Antithrombotic activity (thrombin-induced platelet aggregation); assay type: cell-based, rat (male Sprague Dawley); conditions: 1×10^-3 M
Procedure: Animal: Male Sprague Dawley rate weighing 180-250 g.
Sample: Compound A (1×10^-3 M) in 5% DMF solution.
Rats were anaesthetized with ether and 9 volumes of blood were collected by heart puncture with 1 volume of 3.12% sodium citrate. Combined blood samples were centrifuged at 1,200 rpm for 20 min at 4° C. to obtain platelet-rich plasma. Following centrifugation at 3,000 rpm for 10 min at 4° C., the resulting precipitates (platelets) were resuspended in 0.01M phosphate-buffered saline (pH 7.4). To 1 ml of this solution was added 0.1 ml of the sample solution. After 30 min incubation at 37° C., 10 units of thrombin was added and the reaction mixture was incubated for 1 hr.

Acute toxicity test = assay type: in vivo; conditions: oral, mouse
[5] = General activities and side effects stated in the description; conditions: concluding statement
[6] = final concentration 2.5 × 10^-3 M
[7] = final concentration 2.5 × 10^-4 M
[8] = final concentration 6.3 × 10^-5 M
[9] = final concentration 1.3 × 10^-5 M

Compound: CC(=O)Oc1ccccc1C(=O)O [Aspirin, Acetylsalicylic acid, reference compound]
- % Inhibition of Malondialdehyde (MDA) Generation [1, 6]: 8.4 ± 4.2%
- % Inhibition of Malondialdehyde (MDA) Generation [1, 7]: 0.8 ± 0.4%
- % Inhibition of Malondialdehyde (MDA) Generation [1, 8]: 4.6 ± 2.3%
- number of rats that exhibited gastric ulcer ([2]; 200 mg/kg P.O.): 5/5
- Ulcer Index ([2]; 200 mg/kg P.O.): 29.3 ± 6.15 mm
- gastric ulceration [2]: caused ulceration
- Bleeding Time (Bleeding time; 15 mg/kg P.O., day 2): 353.5 ± 74.7
- Bleeding Time (Bleeding time; 15 mg/kg P.O., day 4): 372.7 ± 50.1
- Bleeding Time (Bleeding time; 15 mg/kg P.O., day 6): 516.6 ± 119.4
- Bleeding Time (Bleeding time; 15 mg/kg P.O., day 8): 493.6 ± 86.6
- Bleeding Time (Bleeding time; 15 mg/kg P.O., day 10): 441.9 ± 46.2
- gastric ulceration induced by aspirin [3]: induces gastric ulceration
- pharmacological activities of aspirin [3]: antipyretic, antianalgesic, antioxidant and antithromobotic activities

Compound: CC(=O)Oc1ccccc1C(=O)Oc1c(C)occc1=O [Compound A, maltol-acetylsalicylate ester]
- % Inhibition of Malondialdehyde (MDA) Generation [1, 9]: 4.3 ± 2.1%
- % Inhibition of Malondialdehyde (MDA) Generation [1, 6]: 91.9 ± 4.1%
- % Inhibition of Malondialdehyde (MDA) Generation [1, 7]: 58.9 ± 7.0%
- % Inhibition of Malondialdehyde (MDA) Generation [1, 8]: 2.3 ± 1.1%
- antipyretic potency compared to aspirin (Typhoid vaccine pyrogen): five times lower than that of aspirin
- % Increment of Edema ([4]; 300 mg/kg P.O., 0.5 hr): 46.5 ± 13.98%
- % Increment of Edema ([4]; 300 mg/kg P.O., 1.5 hr): 51.2 ± 9.47%
- % Increment of Edema ([4]; 300 mg/kg P.O., 2.5 hr): 56.1 ± 11.50%
- % Increment of Edema ([4]; 300 mg/kg P.O., 3.5 hr): 69.4 ± 13.89%
- % Increment of Edema ([4]; 300 mg/kg P.O., 4.5 hr): 81.9 ± 9.96%
- % Increment of Edema ([4]; 400 mg/kg P.O., 0.5 hr): 20.3 ± 6.85%
- % Increment of Edema ([4]; 400 mg/kg P.O., 1.5 hr): 33.8 ± 3.19%
- % Increment of Edema ([4]; 400 mg/kg P.O., 2.5 hr): 50.2 ± 6.43%
- % Increment of Edema ([4]; 400 mg/kg P.O., 3.5 hr): 58.4 ± 6.09%
- % Increment of Edema ([4]; 400 mg/kg P.O., 4.5 hr): 66.2 ± 8.52%
- anti-inflammatory effect ([4]; doses of 300 and 450 mg/kg, oral): no anti-inflammatory effect
- protein stabilizing activity (BSA): did not contain protein stabilizing activity
- antithrombotic activity (platelets): showed antithrombotic activity
- platelet aggregation (platelets; 10 units thrombin, naked eye, 1 hr): platelet aggregation was not observed
- Ulcer Index ([2]; 100 mg/kg P.O.): 0 mm
- Ulcer Index ([2]; 200 mg/kg P.O.): 0 mm
- number of rats that exhibited gastric ulcer ([2]; 800 mg/kg P.O.): 1/6
- Ulcer Index ([2]; 800 mg/kg P.O.): 0.7 ± 0.61 mm
- gastric ulcer ([2]; at 5 times higher dose than aspirin): did not cause gastric ulcer
- gastric ulceration [2]: did not cause gastric ulceration
- Bleeding Time (Bleeding time; 15 mg/kg P.O., day 2): 339.6 ± 53.9
- Bleeding Time (Bleeding time; 15 mg/kg P.O., day 4): 396.9 ± 56.0
- Bleeding Time (Bleeding time; 15 mg/kg P.O., day 6): 429.4 ± 50.6
- Bleeding Time (Bleeding time; 15 mg/kg P.O., day 8): 518.3 ± 102.8
- percent increment of bleeding time (Bleeding time; 15 mg/kg P.O., day 10): 50%
- Bleeding Time (Bleeding time; 15 mg/kg P.O., day 10): 472.1 ± 57.4
- percent increment of bleeding time (Bleeding time; 45 mg/kg P.O., day 10): 48%
- Bleeding Time (Bleeding time; 45 mg/kg P.O., day 10): 467.8 ± 55.9
- prolongation of the bleeding time (Bleeding time; administered for 10 days): 50%
- LD50 (Acute toxicity test; in vivo): 2140 mg/kg
- toxicity (Acute toxicity test): little toxicity
- side effects [5]: little side effects

Compound: Cc1occc(=O)c1O [Maltol, maltol]
- % Inhibition of Malondialdehyde (MDA) Generation [1, 9]: 5.2 ± 2.6%
- % Inhibition of Malondialdehyde (MDA) Generation [1, 6]: 99.4 ± 0.3%
- % Inhibition of Malondialdehyde (MDA) Generation [1, 7]: 94.8 ± 2.6%
- % Inhibition of Malondialdehyde (MDA) Generation [1, 8]: 13.4 ± 6.7%

Compound: CCCCC1C(=O)N(c2ccccc2)N(c2ccccc2)C1=O [Phenylbutazone, reference compound]
- % Increment of Edema ([4]; 100 mg/kg P.O., 0.5 hr): 11.8 ± 6.26%
- % Increment of Edema ([4]; 100 mg/kg P.O., 1.5 hr): 20.9 ± 6.88%
- % Increment of Edema ([4]; 100 mg/kg P.O., 2.5 hr): 21.9 ± 9.22%
- % Increment of Edema ([4]; 100 mg/kg P.O., 3.5 hr): 36.2 ± 14.45%
